According to patent US20200138829A1, “METHODS OF CANCER TREATMENT” (Ferro Therapeutics, Inc., priority 2017, published 2020):
Where a name gives a salt, the structure may show the parent alone. Read-outs that look alike come from different tables or passages of the source. * marks the point of attachment. Cbz = O=C(OCc1ccccc1)*; CH2F = FC*

How the values were obtained:
A549 cells [1] = experiment: Combination proliferation assay with PKC activator, A549; assay type: cell-based; conditions: inducer at concentration with minimal or no effect alone
Description: (§1) Cell viability assay was performed to assess the potency of the ferroptosis inducer compounds in various cancer cell lines with K-Ras mutations. Cells at a density of 1,000-10,000 cells/well were seeded in 96-well plates and incubated at 37° C. overnight. A series of 9 different concentrations of compound stocks (500×) were created by 3-fold serial dilution in DMSO. These compounds were further diluted in culture media and then added to cells so that the final DMSO concentration was equal to 0.25% or less. After 96 hours of incubation, 50 μL of CellTiter Glo reagent (Promega) was added to each well and luminescence was measured after 10 minutes using EnVision (PerkinElmer). K101A (a PKC activator) was used as the reference compound titrated from top concentration of 30 μM. All compounds were tested initially from 30 μM as the top concentration in duplicates (range of 4.6 nM-30 μM). […] Data was analyzed using XL-fit software (ID Business Solutions Ltd.). IC50, relative IC50, or % of top inhibition was calculated.
(§2) Therefore, whether PKC activators synergize or antagonize with ferroptosis inducers can be tested empirically.

[2] = test system: MiaPaCa-2 pancreatic cancer cell line; experiment: Cell viability assay (CellTiter Glo), MiaPaCa-2; assay type: cell-based; conditions: Homo sapiens, MIA PaCa-2, 96 hours of incubation
Description: (§3) Cell viability assay was performed to assess the potency of the ferroptosis inducer compounds in various cancer cell lines with K-Ras mutations. […] A series of 9 different concentrations of compound stocks (500×) were created by 3-fold serial dilution in DMSO. […] After 96 hours of incubation, 50 μL of CellTiter Glo reagent (Promega) was added to each well and luminescence was measured after 10 minutes using EnVision (PerkinElmer). […] […] IC50, relative IC50, or % of top inhibition was calculated.

Panc1 cells = experiment: Combination proliferation assay with PKC activator, Panc1; assay type: cell-based
Description: as §1, §2

Capan-1 cells [3] = experiment: Combination proliferation assay with PKC activator, Capan-1; assay type: cell-based
Description: as §1, §2

[4] = test system: A549 lung cancer cell line; experiment: Cell viability assay (CellTiter Glo), A549; assay type: cell-based
Description: as §3

Namalwa cell line = experiment: Combination proliferation assay with PKC activator, Namalwa; assay type: cell-based
Description: as §1, §2
(§4) Therefore, it is of interest to test combination treatment of both classes of compounds in lymphoma cells.

PSN-1 cells [5] = experiment: Combination proliferation assay with PKC activator, PSN-1; assay type: cell-based
Description: as §1, §2

Panc2.13 cells [6] = experiment: Combination proliferation assay with PKC activator, Panc2.13; assay type: cell-based
Description: as §1, §2

[7] = test system: K-RAS mutant pancreatic cell lines; experiment: Cell viability assay, several pancreatic cell lines compared with A549; assay type: cell-based; conditions: for potency in the pancreatic cell lines relative to A549 (in words): MiaPaCa-2 and KP-4 versus A549
Description: (§5) Cell viability assay was performed to assess the potency of the ferroptosis inducer compounds in various cancer cell lines with K-Ras mutations. […] A series of 9 different concentrations of compound stocks (500×) were created by 3-fold serial dilution in DMSO. […] After 96 hours of incubation, 50 μL of CellTiter Glo reagent (Promega) was added to each well and luminescence was measured after 10 minutes using EnVision (PerkinElmer). […] IC50, relative IC50, or % of top inhibition was calculated. Next, RSL3, ML210, Erastin, and Auranofin were tested on additional K-RAS mutant pancreatic cell lines (Panc1, Panc6.03, Panc2.13, PSN-1, and Capan-1) in Table 1.

[8] = test system: KP-4 pancreatic cancer cell line; experiment: Cell viability assay (CellTiter Glo), KP-4; assay type: cell-based; conditions: for selectivity for KP-4 over A549: KP-4 versus A549
Description: as §3

KP-4 cells [9] = experiment: Combination proliferation assay with PKC activator, KP-4; assay type: cell-based
Description: as §1, §2

Capan-1 cells [10] = experiment: Cell viability assay (CellTiter Glo), Capan-1; assay type: cell-based
Description: as §5

PSN-1 cells [11] = experiment: Cell viability assay (CellTiter Glo), PSN-1; assay type: cell-based; conditions: PSN-1; 96 hours of incubation
Description: as §5

KP-4 cells [12] = experiment: Effect of ferroptosis or apoptosis inhibitor on RSL3- or Erastin-induced cell death, KP-4; conditions: KP-4; for effect on cell death induced by RSL3 or Erastin: co-treatment
Description: as §1
Ferroptosis inhibitors include: Ferrostatin-1 and Liproxstatin-1, inhibitors of ROS accumulation; Deferoxamine, an iron chelator; and PD146176, a 15-lipoxygenase inhibitor (see, e.g., Hofman et al., 2016, J Med Chem. March 10; 59(5):2041-53; Yang et al., 2016 Cell 26(3):165-176). The apoptosis inhibitor chosen was ZVAD (see, e.g. Wu et al., 2011, Cell Death and Differentiation 18:26-37). Ferroptosis inhibitors and ZVAD were first titrated as a single agent as shown in Example 1.

[13] = test system: A549, MiaPaCa-2, and KP-4; experiment: Cell viability assay, comparison across A549, MiaPaCa-2 and KP-4; assay type: cell-based; conditions: single agent
Description: as §1

Panc2.13 cells [14] = experiment: Cell viability assay (CellTiter Glo), Panc2.13; assay type: cell-based; conditions: Panc2.13 versus A549
Description: as §5

Mino cell line = experiment: Combination proliferation assay with PKC activator, Mino; assay type: cell-based
Description: as §1, §2, §4

A549 cells [15] = experiment: Effect of ferroptosis or apoptosis inhibitor on RSL3- or Erastin-induced cell death, A549; conditions: A549; ZVAD
Description: as §1
Ferroptosis inhibitors include: Ferrostatin-1 and Liproxstatin-1, inhibitors of ROS accumulation; Deferoxamine, an iron chelator; and PD146176, a 15-lipoxygenase inhibitor (see, e.g., Hofman et al., 2016, J Med Chem. March 10; 59(5):2041-53; Yang et al., 2016 Cell 26(3):165-176). […]

COC(=O)c1ccc([C@H]2c3[nH]c4ccccc4c3C[C@H](C(=O)OC)N2C(=O)CCl)cc1 [RSL3]
synergy with K101A or K102 to block proliferation (A549 cells [1]): synergized strongly | IC50 [2]: 8 nM | effect on the potency of K101A or K102 (Panc1 cells): increasing the potency | synergy with K101A or K102 to block proliferation (Panc1 cells): synergized | % of top inhibition by K101A or K102 in combination with the ferroptosis inducer (Capan-1 cells [3]): ~80% | effect on the potency of K101A or K102 (Capan-1 cells [3]): increased the potency | synergy with K101A or K102 to block proliferation (Capan-1 cells [3]): synergized strongly | IC50 ([4]; Homo sapiens, A549 lung cancer cell line, 96 hours of incubation): 1880 nM | effect of addition to K101A or K102 on potency and % of top inhibition (Namalwa cell line): improved potency and % of top inhibition | synergy with K101A (PKC activators) to block proliferation (PSN-1 cells [5]): synergized | % of top inhibition by K101A or K102 in combination with the ferroptosis inducer (Panc2.13 cells [6]): ~80% | effect on the potency of K101A or K102 (Panc2.13 cells [6]): increased the potency | synergy with K101A or K102 to block proliferation (Panc2.13 cells [6]): synergized | potency in the pancreatic cell lines relative to A549 (in words) [7]: two to three orders of magnitude more potent | selective cell death in comparison to A549 ([7]; range over all five lines Panc1, Panc6.03, Panc2.13, PSN-1, Capan-1): 2-26 fold | IC50 ([8]; Pancreatic cancer cell, KP-4, 96 hours of incubation): 2 nM | synergy when combined with K101A or K102 (KP-4 cells [9]): only additive effects

Dihydroartemisinin
synergy with K101A (PKC activators) to block proliferation (PSN-1 cells [5]): no synergy | IC50 (Capan-1 cells [10]; Capan-1, 96 hours of incubation): 2150 nM | IC50 (PSN-1 cells [11]): 540 nM | synergy when combined with K101A or K102 (KP-4 cells [9]): moderate/minor synergy

C=CCNc1nc(NCC=C)nc(N2CCN(C(c3ccc(F)cc3)c3ccc(F)cc3)CC2)n1 [Almitrine]
potency of inhibition of A549 cells (in words) [4]: very weak inhibitors

Buthionine sulfoximine [BSO]
effect on A549 cells ([4]; at very high concentration (>1 mM)): minimal effects

c1ccc2c(c1)SCc1c-2[nH]c2ccccc12 [PD146176]
effect on RSL3- or Erastin-induced cell death (KP-4 cells [12]; PD146176 at 0.504): partially reversed | differential activity among three cell lines [13]: do not show differential activity | potency in blocking cell proliferation (in words) [13]: not potent

COc1ccc(N(C(=O)CCl)C(C(=O)NCCc2ccccc2)c2cccs2)cc1Cl (stereo not shown) [ML162]
selectivity for KP-4 over A549 [8]: > 80 fold

Cc1onc(C(=O)N2CCN(C(c3ccc(Cl)cc3)c3ccc(Cl)cc3)CC2)c1[N+](=O)[O-] [ML210]
synergy with K101A or K102 to block proliferation (A549 cells [1]): minor synergy | effect on the potency of K101A or K102 (Panc1 cells): increasing the potency | synergy with K101A or K102 to block proliferation (Panc1 cells): synergized | % of top inhibition by K101A or K102 in combination with the ferroptosis inducer (Capan-1 cells [3]): ~80% | effect on the potency of K101A or K102 (Capan-1 cells [3]): increased the potency | synergy with K101A or K102 to block proliferation (Capan-1 cells [3]): synergized strongly | synergy with K101A (PKC activators) to block proliferation (PSN-1 cells [5]): synergized | selectivity in comparison to A549 (Panc2.13 cells [14]): no selectivity | % of top inhibition by K101A or K102 in combination with the ferroptosis inducer (Panc2.13 cells [6]): ~80% | effect on the potency of K101A or K102 (Panc2.13 cells [6]): increased the potency | synergy with K101A or K102 to block proliferation (Panc2.13 cells [6]): synergized | potency in the pancreatic cell lines relative to A549 (in words) [7]: at least two orders of magnitude more potent | sensitivity in comparison to A549 ([7]; range over Panc1, Panc6.03, and PSN-1): 8-30 fold | selectivity in comparison to A549 (Capan-1 cells [10]; Capan-1 versus A549): no selectivity | synergy when combined with K101A or K102 (Mino cell line): minor synergy | synergy when combined with K101A or K102 (KP-4 cells [9]): no synergy

Cbz-Val-Ala-Asp-CH2F
effect on RSL3- or Erastin-induced cell death (KP-4 cells [12]; ZVAD at 30 μM): did not rescue | effect on RSL3- or Erastin-induced cell death (A549 cells [15]): did not rescue | differential activity among three cell lines [13]: do not show differential activity | potency in blocking cell proliferation (in words) [13]: not potent

C/C=C(/C)C(=O)O[C@H]1C(C)=C[C@]23C(=O)[C@@H](C=C(CO)[C@@H](O)[C@]12O)[C@H]1[C@@H](C[C@H]3C)C1(C)C [K102, ingenol-3-angelate]
% of top inhibition by K101A or K102 without ferroptosis inducer (Panc2.13 cells [6]): ~60%

CN(C)c1nc(N(C)C)nc(N(C)C)n1 [Altretamine]
potency of inhibition of A549 cells (in words) [4]: very weak inhibitors

CO[C@H]1O[C@@H]2O[C@@]3(C)CC[C@H]4[C@H](C)CC[C@@H]([C@H]1C)[C@@]24OO3 [Artemether]
selectivity for KP-4 over A549 [8]: > 5 fold

C[C@H]1[C@H](OC(=O)CCC(=O)O)O[C@@H]2O[C@@]3(C)CC[C@H]4[C@H](C)CC[C@@H]1[C@@]24OO3 [Artesunate]
synergy when combined with K101A or K102 (KP-4 cells [9]): moderate/minor synergy

O=C(O)c1cc(/N=N/c2ccc(S(=O)(=O)Nc3ccccn3)cc2)ccc1O [Sulfasalazine]
synergy with K101A or K102 to block proliferation (A549 cells [1]): No synergy | synergy with K101A or K102 to block proliferation (Panc2.13 cells [6]): did not synergize

CCOC(=O)c1ccc(NC2CCCCC2)c(N)c1 [Ferrostatin-1]
effect on cell death induced by RSL3 or Erastin (KP-4 cells [12]; Ferrostatin-1 at 3 μM): completely abrogated cell death | differential activity among three cell lines [13]: do not show differential activity | potency in blocking cell proliferation (in words) [13]: not potent

CC[P](CC)(CC)=[Au][S]C1OC(COC(C)=O)C(OC(C)=O)C(CC(C)=O)C1OC(C)=O (stereo not shown)
synergy with K101A or K102 to block proliferation (A549 cells [1]): No synergy | synergy with K101A or K102 to block proliferation (Panc1 cells; inducer up to 1 μM): No synergistic effects | synergy with K101A or K102 to block proliferation (Capan-1 cells [3]): did not synergize | synergy when combined with K101A or K102 (Namalwa cell line): minor synergy | synergy with K101A or K102 to block proliferation (Panc2.13 cells [6]): did not synergize | synergy when combined with K101A or K102 (Mino cell line): moderate synergy | synergy when combined with K101A or K102 (KP-4 cells [9]): no synergy

CC(=O)O[C@@]12C[C@@H](C)[C@@]3(O)[C@@H](C=C(CO)C[C@]4(O)C(=O)C(C)=C[C@@H]34)[C@@H]1C2(C)C [K101A, 12-deoxyphorbol 13-acetate]
% of top inhibition by K101A or K102 without ferroptosis inducer (Panc2.13 cells [6]): ~60%

Clc1cccc(CN=C2Nc3ccccc3NC23CCNCC3)c1 [Liproxstatin-1]
effect on cell death induced by RSL3 or Erastin (KP-4 cells [12]; Liproxstatin-1 at 304): completely abrogated cell death | differential activity among three cell lines [13]: do not show differential activity | potency in blocking cell proliferation (in words) [13]: not potent

CC(=O)N(O)CCCCCNC(=O)CCC(=O)N(O)CCCCCNC(=O)CCC(=O)N(O)CCCCCN [Deferoxamine mesylate]
effect on RSL3- or Erastin-induced cell death (KP-4 cells [12]; Deferoxamine): did not rescue | differential activity among three cell lines [13]: do not show differential activity | potency in blocking cell proliferation (in words) [13]: not potent
